The target in experiment [1] is T1, MIF (Homo sapiens, UniProt P14174).
T1 construct: purchased Abcam ab51096
T1 sequence (P14174 2-115 limits assumed): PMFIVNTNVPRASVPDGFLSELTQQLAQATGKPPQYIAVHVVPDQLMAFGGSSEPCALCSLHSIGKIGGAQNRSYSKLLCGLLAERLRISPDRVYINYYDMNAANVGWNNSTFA
Briefly: MST assay, binding affinity to MIF. The following applies: mean ± SD. The procedure: (§1) All chemicals were purchased from commercial suppliers without additional purification required. […] The high-performance liquid chromatography (HPLC) spectra data for each compound were provided in the Supplementary Materials (Figures S2.1–2.6). RAW 264.7 murine macrophages were purchased from the American Type Culture Collection (ATCC, TIB-71). 10% foetal bovine serum (FBS), 100 units/mL of penicillin, and 100 µg/mL of streptomycin were added to the Dulbecco’s modified Eagle’s medium (DMEM). The FBS, penicillin, streptomycin, and DMEM were purchased from Gibco (Grand Island, NY, USA). The cells were cultured in the incubator that was humidified with 5% CO2 and 95% air at 37 °C. The human recombinant MIF was purchased from Abcam (Cambridge, MA, USA) and catalogue number was ab51096.
The MST assay was used to measure the Kd value, aiming to assess the binding affinity between small molecules and targeted proteins in the field of drug discovery. […] The degree of labelling (DOL) of the MIF protein was calculated. The ideal DOL was in the range of 0.5–1. The Monolith™ RED-NHS second-generation protein labelling kit (NanoTemper Technologies) was used for the fluorescent labelling of MIF protein. We strictly followed the instructions of the kit for the experiment. The PBST (Phosphate-Buffered Saline with Tween) solution containing 0.05% Tween 20 was configured. The ligand was diluted into 16 concentration gradients using the semi-dilution method. The fluorescently labelled protein was added and thoroughly mixed, then incubated for 5 min in the dark. The solution was taken by capillary tube and assayed with the Monolith NT.115 instrument (NanoTemper Technologies). Subsequently, the difference was recorded in fluorescence intensity. The fluorescence intensity was plotted against the concentration of the hit compounds to generate a fluorescence dose curve, following which the Kd value was calculated.

For experiment [2], the system named is MIF. Also noted: method as in PMID 34153665, PMID 33823428. The following applies: cited from earlier work.
A further experiment deals with RAW 264.7 macrophages. The experiment can be described thus: RT-qPCR of LPS-induced proinflammatory gene expression. The note with it: mRNA, LPS 200 ng/mL 6 h, then 300 nM compound 30 min. It counts as cell-based, murine. From the text: All chemicals were purchased from commercial suppliers without additional purification required. […] Hits 1–6 compounds were obtained from WuXi AppTec (Shanghai, China) with a purity exceeding 98%. The high-performance liquid chromatography (HPLC) spectra data for each compound were provided in the Supplementary Materials (Figures S2.1–2.6). RAW 264.7 murine macrophages were purchased from the American Type Culture Collection (ATCC, TIB-71). 10% foetal bovine serum (FBS), 100 units/mL of penicillin, and 100 µg/mL of streptomycin were added to the Dulbecco’s modified Eagle’s medium (DMEM). The FBS, penicillin, streptomycin, and DMEM were purchased from Gibco (Grand Island, NY, USA). The cells were cultured in the incubator that was humidified with 5% CO2 and 95% air at 37 °C. The human recombinant MIF was purchased from Abcam (Cambridge, MA, USA) and catalogue number was ab51096. This experiment was carried out in accordance with the relevant literature. […] RAW 264.7 macrophages were subjected to treatment with LPS at a concentration of 200 ng/mL for 6 h. […] The Trizol method was used to extract the total ribonucleic acid (RNA) from the cells. The RNA reverse transcription kit (Invitrogen) was used to synthesise complementary deoxyribonucleic acid (cDNA) according to the manufacturer’s instructions. The SYRB Green qPCR kit and the primers were used for amplification. Thereafter, to standardise the data, the expression levels of the target genes were normalised to GAPDH and calculated by using the 2^−ΔΔCT method. The expression data were presented in the format of fold-change for clear visualisation.
On the technique in general: In qPCR the cycle at which signal appears reflects the starting amount.

Experiment [3] addresses T1, MIF. Briefly: ITC assay, binding affinity to MIF. The note with it: 25 °C, pH 7.5, mean ± SD. As to the method: as §1
For orientation: ITC needs no label: the signal is the heat of the interaction.

The next experiment concerns the target T2, MIF-CD74 binding (Homo sapiens, UniProt P14174).
T2 sequence (P14174 1-115): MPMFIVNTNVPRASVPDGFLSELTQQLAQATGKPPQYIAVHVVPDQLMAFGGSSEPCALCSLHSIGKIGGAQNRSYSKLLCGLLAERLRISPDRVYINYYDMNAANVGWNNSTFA
Briefly: Pull down assay of GST-MIF with CD74. The note with it: 40 nM biotin-Hit-1; 100 nM and 200 nM CD74; western blot. The procedure:
The pull down experiment was executed as described previously[36] and in line with defined standard principles. The pre-washed beads with purified GST-MIF were incubated for 2 h at 4 °C. The sample was centrifuged at 10 000 rpm and the purified protein was transferred to a new Eppendorf (EP) tube to remove non-specifically bound background proteins. The 40 nM of biotin-Hit-1 was added to the purified protein for incubation. […] The beads were washed five times with PBST. The proteins were denatured at 100 °C for 5 min. The protein bands were isolated and segregated via sodium dodecyl sulphate-polyacrylamide gel electrophoresis (SDS-PAGE) technique. The polyvinylidene fluoride (PVDF) membrane was pre-soaked in methanol. The protein bands were transferred onto the PVDF membrane under the condition of 200 mA. The membrane was blocked by incubating it with 3% bovine serum albumin (BSA) in PBS at 37 °C for 2 h. After every incubation period ended, the membrane was washed three times successively with PBST, with each washing step taking 10 min. Subsequently, the membrane was subjected to incubating with the primary antibody on a shaker overnight at 4 °C. […] Thereafter, the light signal was detected by a sophisticated detection system. Employing the Image J software, the intensity of the bands was quantified.

As usually defined, the Kd is the concentration at which binding is half-saturated. A higher Kd goes with lower affinity. The compound `c1ccc(-c2cc(-c3cn4cccnc4n3)on2)cc1` [Hit-3] returned a dissociation constant Kd on MIF [1] of 540 ± 20 nM.
As for `Cc1nn(-c2ccccc2)nc1-c1nnc(-c2ccccc2)o1` [Hit-5], at MIF [1], the affinity, expressed as Kd, was 810 ± 40 nM. Compared with the last compound, the Kd is about 1.5-fold higher.
The compound `Cc1ccn2cc(-c3cc(-c4ccccc4)no3)nc2c1` [Hit-2] gave a Kd at MIF [1] of 460 ± 30 nM.
Turning to `COC(=O)CC1CC(c2ccc(O)cc2)=NO1` (centres unmarked) [ISO-1], in the experiment on MIF [2], the “Release of pro-inflammatory factors induced by LPS (TNF-α, IL-6, IL-1β)” value is recorded as “suppress the release”.
Regarding `CCc1ccn2cc(-c3cc(-c4ccccc4)no3)nc2c1` [Hit-1], the Kd was 290 ± 10 nM at MIF [1] and 320 ± 10 nM on MIF [3]. Further, the “Reduction of TNF-α level compared with the LPS group” value in the experiment with RAW 264.7 macrophages came out at 3.7 fold. Further, the “Inhibitory effect on the IL-1β” value with RAW 264.7 macrophages (compared with compound 3a) is recorded as “distinctly stronger inhibitory effect”. Further, the “Inhibitory effect on the IL-6 level” value with RAW 264.7 macrophages (compared with compound 3a) is “markedly stronger inhibitory effect”. In addition, the “Effect on MIF interaction with CD74” value on MIF-CD74 binding was “potently suppressed”.
Turning to `Cc1nn(-c2ccccc2)nc1-c1nnc(-c2ccc(Cl)cc2)o1` [Hit-4], on MIF [1], the affinity, expressed as Kd, was 750 ± 60 nM.
At MIF [1], `Cc1nn(-c2ccccc2)nc1-c1nnc(-c2ccc(C(F)(F)F)cc2)o1` [Hit-6] gave a Kd of 720 ± 50 nM.
In the case of `Oc1ccc(-n2cc(-c3ccc4ccccc4n3)nn2)cc1` [Hit 3a, reference compound], the “Reduction of TNF-α level compared with the LPS group” value in the experiment on RAW 264.7 macrophages came to 2.2 fold.
Turning to `COc1ccc(-c2cc(C)nc(SCc3cccc(C(=O)O)c3)n2)cc1` [Hit Z-312, 3-({[4-(4-methoxyphenyl)-6-methyl-2-pyrimidinyl]thio}1methyl)benzoic acid], the “Release of pro-inflammatory factors induced by LPS (TNF-α, IL-6, IL-1β)” value with MIF [2] was “suppress the release”.

The values are drawn from publication PMC12172083, “Identification of a novel and high affinity MIF inhibitor via structure-based pharmacophore modelling, molecular docking, molecular dynamics simulations, and biological evaluation” (Journal of Enzyme Inhibition and Medicinal Chemistry, 2025).
